Laboratory results from patent publication US11253566B2, “Composition for ameliorating, or treating depression and anxiety disorder comprising Fraxinus rhynchophylla extract as effective ingredient” (priority 2017, dated 2022).

Assays:
[1] = Bodyweight change in mouse with induced depression and anxiety disorder; type: in vivo; details: 150 mg/kg doxepin, Day 7 or Day 14, vs control group
Protocol: (§1) Fraxinus rhynchophylla extract was dissolved in physiological saline to have a concentration of 100 mg/kg for each, and then aliquoted. One hour before applying the stress for 14 days, the sample was administered via an oral route.
(§2) A 7-week old male C57BL/6 mouse was acclimated for 1 week, and then exposed to a stress everyday between 10:00 to 14:00 o'clock. Specifically, 1 hour after the oral administration of a sample, an electric shock with strength of 0.5 mA was applied to the foot sole of the mouse for 1 sec with an interval of 10 seconds, for 2 minutes in total, by using a shuttle box (JD-SI-10, JEUNG DO BIO & PLANT CO, LTD, Seoul, S. Korea). […]
A change in body weight caused by administration of the ethanol extract of Fraxinus rhynchophylla of the present invention was determined in the animal model with induced depression and anxiety disorder. Specifically, the bodyweight of a mouse was measured, before the exposure to stress (Day 0), or on Day 7 or Day 14 after the exposure to stress for the normal group, the control group (i.e., group induced with depression and anxiety disorder), the test group (i.e., group administered with the ethanol extract of Fraxinus rhynchophylla of the present invention), and the positive control group (i.e., group administered with doxepin) (FIG. 6). […]

[2] = system: C57BL/6 mouse with induced depression and anxiety disorder; assay: Open field test (OFT); type: in vivo; details: 150 mg/kg doxepin for 14 days, test on Day 15, vs control group
Protocol: as §1, §2
Open field test is to determine the degree of anxiety, which is one symptom of depression, by measuring the voluntary movement of a mouse after entering an unfamiliar field for the first time. At the center (15 cm×15 cm) of an open box with a dimension of 30 cm×30 cm×30 cm, which is made of white acryl, a C57BL/6 mouse which has been induced to have depression and anxiety disorder was placed, and then total travel distance and frequency of center entry for 10 minutes were measured. For the measurement, after recording using a video camera, the overall movement of the C57BL/6 mouse was analyzed by using Video tracking software (SMART 3.0, Panlab, Spain). […]

[3] = system: C57BL/6 mouse with induced depression and anxiety disorder; assay: Forced swim test (FST); type: in vivo; details: 150 mg/kg doxepin for 14 days, test on Day 15, vs control group
Protocol: as §1
as §2, with “Korea). After applying the electric shock, the mouse was put to a hemicylindrical restraining device (JD-R 05A, JEUNG DO BIO & PLANT CO, LTD, Seoul, S. Korea) made of 30 mm-thick acryl, one animal in each device, and then restrained in the immobile state for 2 hours.” for “Korea).”
Forced swim test is a test to determine despair among the symptoms of depression, and the immobility of a mouse was checked using a cylinder having a depth which prevents the animal from touching its paws or tail to the floor of the cylinder. […] Then, the immobility time during 4 minutes, i.e., excluding initial 2 minutes as adaptation period from the total 6 minutes, was measured.

cortisol = assay: Cortisol level in blood serum (ELISA); type: in vivo, mouse; details: 150 mg/kg doxepin for 14 days, blood on Day 17, vs control group
Protocol: as §1
(§3) A 7-week old male C57BL/6 mouse was acclimated for 1 week, and then exposed to a stress everyday between 10:00 to 14:00 o'clock. Specifically, 1 hour after the oral administration of a sample, an electric shock with strength of 0.5 mA was applied to the foot sole of the mouse for 1 sec with an interval of 10 seconds, for 2 minutes in total, by using a shuttle box (JD-SI-10, JEUNG DO BIO & PLANT CO, LTD, Seoul, S. Korea). After applying the electric shock, the mouse was put to a hemicylindrical restraining device (JD-R 05A, JEUNG DO BIO & PLANT CO, LTD, Seoul, S. Korea) made of 30 mm-thick acryl, one animal in each device, and then restrained in the immobile state for 2 hours.
(§4) In addition, for the control group, the 12-hour day and night cycle was maintained, but light illumination was applied to the test group for 24 hours to disrupt the regular living pattern, and thus a sleep-interfering environment was created (FIG. 5).
The cortisol level in blood serum separated from each test animal was measured. […] Absorbance at 405 nm was then measured.

serotonin = assay: Serotonin level in blood serum (ELISA); type: in vivo, mouse; details: 150 mg/kg doxepin for 14 days, blood on Day 17, vs control group
Protocol: as §1, §3, §4
The serotonin level in blood serum separated from each test animal was measured. […] Upon the completion of the reaction, absorbance at a wavelength of 405 nm was measured by using a microplate reader.

pCREB = assay: Expression ratio of pCREB protein in hippocampal tissues (Western blot); type: in vivo, mouse; details: 150 mg/kg doxepin for 14 days, tissues on Day 17, vs control group
BDNF and mBDNF = assay: Expression of BDNF and mBDNF in hippocampal tissues (Western blot); type: in vivo, mouse; details: 150 mg/kg doxepin for 14 days, tissues on Day 17, vs control group
Protocol: as §1
as §3, with “hours. […]” for “hours.”
Protein expression pattern in brain hippocampal tissues which have been collected from each test animal was determined by Western blot analysis. […] After obtaining the protein amount in each sample, the protein was quantified to 1 μg/μl, and then the expression amount of protein was measured by using Mini PROTEAN TGX Gels.

SMILES: CN(C)CCC=C1c2ccccc2COc2ccccc21 [doxepin]
- bodyweight (gain rate) [1]: increased in statistically significant sense
- number of center entry [2]: increased in statistically significant sense
- travel distance within the center zone [2]: increase in statistically significant sense
- immobility time [3]: decreased in statistically significant sense
- blood cortisol level (cortisol): decreased in statistically significant sense
- serotonin hormone level in blood (serotonin): increased in statistically significant sense
- expression ratio of pCREB protein (pCREB/CREB) in hippocampal tissues (pCREB): increase in statistically significant sense
- relative expression amount of BDNF in hippocampal tissues (BDNF and mBDNF): increase in statistically significant sense
- relative expression amount of mBDNF in hippocampal tissues (BDNF and mBDNF): increase in statistically significant sense
